Consider 16 molecules from ChEMBL document CHEMBL4418304, “Combinations for the treatment of kidney stones” (2017).

In one test the target is T1, Hydroxyproline dehydrogenase (Homo sapiens, UniProt Q9UF12).
T1 sequence (Q9UF12 whole entry): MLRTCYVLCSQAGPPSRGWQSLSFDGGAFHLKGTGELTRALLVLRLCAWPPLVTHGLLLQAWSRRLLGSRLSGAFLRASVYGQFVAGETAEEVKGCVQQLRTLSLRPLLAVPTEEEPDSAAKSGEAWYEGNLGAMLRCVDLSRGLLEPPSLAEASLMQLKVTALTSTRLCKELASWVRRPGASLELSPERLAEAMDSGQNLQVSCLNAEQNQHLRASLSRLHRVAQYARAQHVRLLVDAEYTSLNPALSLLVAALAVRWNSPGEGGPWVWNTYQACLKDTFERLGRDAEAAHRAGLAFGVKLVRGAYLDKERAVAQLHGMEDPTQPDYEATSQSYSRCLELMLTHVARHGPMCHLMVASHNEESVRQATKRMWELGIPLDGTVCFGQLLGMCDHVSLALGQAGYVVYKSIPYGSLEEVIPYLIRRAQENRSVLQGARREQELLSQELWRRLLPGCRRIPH
The test can be described thus: Inhibition of recombinant human HYPDH expressed in Escherichia coli using hydroxyproline as substrate preincubated for 5 mins followed by substrate addition in presence of FAD as cofactor.
Settings: not given
A word on the IC50: it is the concentration that gives 50% inhibition. On to `O=C(O)c1ccco1`, for which the half-maximal inhibitory concentration (IC50) result is “Nd(Insoluble)”.

Still in this test, the particulars now being: read-out: IC50.
As to `O=C(O)C1=NN=C(O)C1`, the half-maximal inhibitory concentration (IC50) stood at 2900 µM.
Take `O=C(O)[C@H]1CC[C@H](O)C1`: the IC50 came to 600 µM.
On to `O=C(O)[C@@H]1C[C@H](O)CS1`, for which the IC50 was determined as 370 µM.
Still for that read-out and setting: to `O=C(O)[C@@H]1CC[C@@H](O)C1` belongs 2100 µM; to `O=C(O)C1CCCO1` (stereo unspecified), 1500 µM; to `O=C1CC[C@@H](C(=O)O)C1`, 370 µM.
`O=C(O)c1cc(O)cs1`: the IC50 is < 1000 µM.
The same measure, in the same setting: to `O=C(O)[C@@H]1C[C@@H](O)CS1` belongs 330 µM.
For the molecule `O=C1CC[C@H](C(=O)O)C1`, the IC50 turned out to be 380 µM.
For `O=C(O)[C@@H]1CC(O)(O)CS1`, the IC50 stood at 290 µM.
The same measure, in the same setting: to `O=C(O)C[C@H]1CC[C@H](O)C1` belongs 480 µM; to `O=C1CS[C@H](C(=O)O)C1`, 320 µM.
Consider `N[C@H]1CC[C@H](C(=O)O)C1`, for which the IC50 came out at 630 µM.
On the same count and under the same terms, for `O=C(O)[C@H]1CC[C@@H](O)C1` the value was > 10000 µM.

For a further test, the target named is T2, 2-Hydroxyacid oxidase 1 (Homo sapiens, UniProt Q9UJM8).
T2 sequence (Q9UJM8 whole entry): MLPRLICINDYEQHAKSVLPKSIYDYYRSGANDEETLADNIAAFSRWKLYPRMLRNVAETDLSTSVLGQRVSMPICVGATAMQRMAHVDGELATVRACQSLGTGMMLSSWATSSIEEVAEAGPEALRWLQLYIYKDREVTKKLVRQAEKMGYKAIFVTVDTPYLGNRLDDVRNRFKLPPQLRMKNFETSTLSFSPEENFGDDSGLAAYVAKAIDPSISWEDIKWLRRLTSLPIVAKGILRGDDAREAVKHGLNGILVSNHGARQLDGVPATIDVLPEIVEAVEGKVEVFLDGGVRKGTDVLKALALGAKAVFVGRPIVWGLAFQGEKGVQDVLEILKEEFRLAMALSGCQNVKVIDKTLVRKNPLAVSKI
The test is described as follows: Inhibition of recombinant human liver HAOX1 using glycolate as substrate preincubated for 5 mins followed by substrate addition in presence of […].
Settings: not given
In general, Ki refers to a measure of affinity in units of concentration, obtained from inhibition or displacement. For `CCCCCCCCCCCCSc1[nH]nnc1C(=O)O`, the Ki is 0.015 µM.
